The target of assay [1] is tPA (Homo sapiens, UniProt P00750). Nature of the assay: inhibition of tPA, dissociation constant Ki.
In assay [2] the target is plasma kallikrein (Homo sapiens, UniProt P03952). Nature of the assay: inhibition of plasma kallikrein, dissociation constant Ki.
Assay [3] deals with T1, thrombin (Bos taurus, UniProt P00735).
In assay [4] the target is T2, trypsin (Bos taurus, UniProt P00760).
T2 sequence (P00760 24-246): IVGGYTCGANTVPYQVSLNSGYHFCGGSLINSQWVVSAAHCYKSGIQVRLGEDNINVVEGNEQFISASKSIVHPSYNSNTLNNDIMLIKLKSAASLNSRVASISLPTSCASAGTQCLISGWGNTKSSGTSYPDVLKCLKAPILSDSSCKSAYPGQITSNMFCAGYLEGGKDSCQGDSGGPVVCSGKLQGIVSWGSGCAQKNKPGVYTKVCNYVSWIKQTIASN
Nature of the assay: inhibition of trypsin, dissociation constant Ki. Type of assay: biochemical. Also on record: thrombin and the related enzymes trypsin, plasmin, factor Xa, factor XIIa. To be noted: Table 1; read-out: Ki, Trypsin. As to the method: (§1) The biological activity of the compounds of the present invention was determined in vitro as well as in vivo.

Assay [5] deals with T3, factor XIIa (Homo sapiens, UniProt P00748).
T3 sequence (P00748 373-615 limits assumed): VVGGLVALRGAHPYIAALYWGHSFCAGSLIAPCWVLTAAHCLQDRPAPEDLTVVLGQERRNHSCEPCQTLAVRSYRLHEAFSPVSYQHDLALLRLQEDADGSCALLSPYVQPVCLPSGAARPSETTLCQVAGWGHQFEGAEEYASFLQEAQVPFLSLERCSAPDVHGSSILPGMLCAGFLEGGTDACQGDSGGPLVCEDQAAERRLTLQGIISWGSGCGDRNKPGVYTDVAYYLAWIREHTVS
Nature of the assay: inhibition of factor XIIa, dissociation constant Ki.

The target of assay [6] is glandular kallikrein (Sus scrofa, UniProt P00752). Put plainly: inhibition of glandular kallikrein, dissociation constant Ki.
Chain of glandular kallikrein (P00752 8-246): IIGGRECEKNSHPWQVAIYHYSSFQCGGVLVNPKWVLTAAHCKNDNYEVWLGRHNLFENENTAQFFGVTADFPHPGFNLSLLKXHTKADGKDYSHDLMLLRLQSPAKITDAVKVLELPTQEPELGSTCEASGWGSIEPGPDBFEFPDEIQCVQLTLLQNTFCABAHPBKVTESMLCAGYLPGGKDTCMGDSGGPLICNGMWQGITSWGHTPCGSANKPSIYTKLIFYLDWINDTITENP
The target in assay [7] is factor Xa (Bos taurus, UniProt P00743). Nature of the assay: inhibition of factor Xa, dissociation constant Ki. Type of assay: biochemical. The note with it: Table 1. As to the method: as §1
Chain of factor Xa (P00743 234-492 limits assumed): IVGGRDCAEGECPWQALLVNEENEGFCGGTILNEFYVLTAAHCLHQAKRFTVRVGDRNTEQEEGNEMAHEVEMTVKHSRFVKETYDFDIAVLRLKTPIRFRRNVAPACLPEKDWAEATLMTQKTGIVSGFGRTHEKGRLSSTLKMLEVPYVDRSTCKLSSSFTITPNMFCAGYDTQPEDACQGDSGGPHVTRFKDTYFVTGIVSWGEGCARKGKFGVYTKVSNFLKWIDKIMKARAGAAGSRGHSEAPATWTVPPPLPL
Chain of factor Xa (P00743 41-180 partner limits assumed): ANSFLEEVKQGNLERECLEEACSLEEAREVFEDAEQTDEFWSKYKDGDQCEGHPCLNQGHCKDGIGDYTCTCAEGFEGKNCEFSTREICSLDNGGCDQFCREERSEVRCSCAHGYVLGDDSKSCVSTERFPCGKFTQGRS
Assay [8] addresses plasmin (Homo sapiens, UniProt P00747). Nature of the assay: inhibition of plasmin, dissociation constant Ki.
Assay [9] deals with T1, thrombin. Put plainly: biochemical.
The subject of assay [10] is coagulation in human plasma. Nature of the assay: thrombin time (TT) in human plasma.
The test system of assay [11] is coagulation in human plasma. Put plainly: prothrombin time (PT, Quick value) in human plasma.
Assay [12] has as its system coagulation in human plasma. Put plainly: activated partial thromboplastin time (aPTT) in human plasma.
The mark [13] stands for this setting: read-out: Ki, Thrombin, Table 1.

Values joined by “and” are separate entries in the source; they are usually repeats but may differ in a detail not shown here. Equal entries are not always repeated. Structures can show the parent of a compound that is named as a salt. Where two headings read alike, the source gives them in different places.

These results are taken from patent US5607937A, “Piperazides of substituted phenylalanine derivatives as thrombin inhibitors” (priority 1993, dated 1997).

Chain of plasma kallikrein (P03952 391-638 limits assumed, species assumed): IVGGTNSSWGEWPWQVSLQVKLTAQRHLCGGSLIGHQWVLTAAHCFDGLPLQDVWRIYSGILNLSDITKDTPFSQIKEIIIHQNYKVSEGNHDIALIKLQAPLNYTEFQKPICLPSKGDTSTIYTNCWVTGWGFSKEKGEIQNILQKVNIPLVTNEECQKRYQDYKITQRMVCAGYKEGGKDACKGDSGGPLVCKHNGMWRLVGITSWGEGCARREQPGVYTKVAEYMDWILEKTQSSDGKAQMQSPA
Chain of plasma kallikrein (P03952 20-390 partner limits assumed, species assumed): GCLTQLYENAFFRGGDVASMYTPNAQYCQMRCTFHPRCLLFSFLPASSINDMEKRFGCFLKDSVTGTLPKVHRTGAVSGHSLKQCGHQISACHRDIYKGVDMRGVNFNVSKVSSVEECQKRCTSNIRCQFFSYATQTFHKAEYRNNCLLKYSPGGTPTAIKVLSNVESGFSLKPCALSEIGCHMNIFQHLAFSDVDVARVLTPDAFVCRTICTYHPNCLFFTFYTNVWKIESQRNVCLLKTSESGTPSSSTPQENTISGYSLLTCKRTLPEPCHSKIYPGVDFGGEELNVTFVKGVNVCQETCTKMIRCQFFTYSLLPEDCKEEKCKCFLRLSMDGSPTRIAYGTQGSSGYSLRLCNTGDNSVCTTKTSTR
Chain of tPA (P00750 36-562): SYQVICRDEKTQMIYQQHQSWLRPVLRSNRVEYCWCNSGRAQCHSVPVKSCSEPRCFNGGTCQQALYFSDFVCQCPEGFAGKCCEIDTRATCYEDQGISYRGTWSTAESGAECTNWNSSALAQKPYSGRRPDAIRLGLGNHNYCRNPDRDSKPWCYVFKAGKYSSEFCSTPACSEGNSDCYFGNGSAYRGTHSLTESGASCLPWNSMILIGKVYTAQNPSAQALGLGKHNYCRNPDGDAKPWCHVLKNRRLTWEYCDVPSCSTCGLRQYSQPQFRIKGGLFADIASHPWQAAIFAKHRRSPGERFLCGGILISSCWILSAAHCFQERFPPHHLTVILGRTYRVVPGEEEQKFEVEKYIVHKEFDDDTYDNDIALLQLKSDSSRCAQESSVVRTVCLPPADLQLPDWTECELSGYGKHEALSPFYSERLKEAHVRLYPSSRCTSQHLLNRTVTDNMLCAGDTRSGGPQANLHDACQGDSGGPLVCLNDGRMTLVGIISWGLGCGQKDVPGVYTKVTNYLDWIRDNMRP
Chain of plasmin (P00747 581-810 limits assumed): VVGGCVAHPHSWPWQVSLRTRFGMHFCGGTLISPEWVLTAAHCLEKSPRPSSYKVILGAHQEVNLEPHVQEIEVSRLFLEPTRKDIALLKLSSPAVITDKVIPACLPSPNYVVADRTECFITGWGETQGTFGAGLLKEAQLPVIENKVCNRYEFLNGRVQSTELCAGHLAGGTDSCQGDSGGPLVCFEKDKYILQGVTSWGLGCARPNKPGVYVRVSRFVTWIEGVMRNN
Chain of plasmin (P00747 97-580 partner limits assumed): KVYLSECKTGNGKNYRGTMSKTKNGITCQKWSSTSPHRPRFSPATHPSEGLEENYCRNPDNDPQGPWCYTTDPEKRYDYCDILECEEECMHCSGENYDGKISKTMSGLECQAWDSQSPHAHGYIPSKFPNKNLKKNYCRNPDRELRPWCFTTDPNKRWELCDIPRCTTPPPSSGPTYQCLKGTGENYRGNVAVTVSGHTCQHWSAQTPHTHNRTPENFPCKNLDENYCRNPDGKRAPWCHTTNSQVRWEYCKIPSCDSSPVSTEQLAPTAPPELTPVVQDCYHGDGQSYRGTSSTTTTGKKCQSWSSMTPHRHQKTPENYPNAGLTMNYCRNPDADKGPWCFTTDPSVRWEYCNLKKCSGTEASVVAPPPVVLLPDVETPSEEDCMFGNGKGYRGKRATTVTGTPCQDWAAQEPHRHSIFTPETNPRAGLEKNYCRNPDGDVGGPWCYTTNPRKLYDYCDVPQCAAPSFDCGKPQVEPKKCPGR

As a reminder, the Ki is a measure of affinity in units of concentration, obtained from inhibition or displacement. `CN(C)C(=O)N1CCN(C(=O)C(Cc2cccc(C(=N)N)c2)NS(=O)(=O)c2cccc3ccccc23)CC1` (stereo not shown) [AMD 1-Naph CO2 N(Me)2]: the Ki was 270 µM in [1] (read-out: Ki, tPA, Table 1); 37 µM in assay [2] (read-out: Ki, Plasma kallikr., Table 1); 0.068 µM in assay [3] (setting [13]); 0.25 µM in assay [4]; 72 µM in [5] (read-out: Ki, Factor XIIa, Table 1); over 1000 µM in assay [6] (read-out: Ki, Gland. kallikr., Table 1). Besides, the Ki in [7] stood at 5.9 µM; in [8] (read-out: Ki, Plasmin, Table 1), 4.8 µM.

Consider `CN(C)C(=O)N1CCN(C(=O)C(Cc2cccc(C(=N)N)c2)NS(=O)(=O)c2ccc3ccccc3c2)CC1` (stereo not shown) [AMD 2-Naph CO-N(Me)2], for which the inhibition constant Ki in assay [1] is over 1000 µM; in [9], 0.013 µM; in assay [2] (Ki, Plasma kallikr., Table 1), 47 µM and 28 µM; in assay [3] (setting [13]), 0.0088 µM; in assay [4], 0.049 µM; in assay [5] (Ki, Factor XIIa, Table 1) it was 200 µM and 130 µM. Further, the Ki was over 1000 µM in [6]; 24 µM and 22 µM in [7]; 6.2 µM in assay [8]; 6.1 µM in assay [8] (read-out: Ki, Plasmin, Table 1).

In the case of `N=C(N)c1cccc(CC(NS(=O)(=O)c2ccc3ccccc3c2)C(=O)N2CCN(CCO)CC2)c1` (stereo not shown) [AMD 2-Naph EtOH], the inhibition constant (Ki) in assay [1] is over 1000 µM; in assay [2], 74 µM; in assay [3] (read-out: Ki, Thrombin), 0.058 µM; in [5] (Ki, Factor XIIa, Table 1), over 1000 µM; in [6], over 1000 µM; in assay [7], 35 µM. Also, in assay [8] (read-out: Ki, Plasmin, Table 1), the inhibition constant Ki was found to be 42 µM.

Consider `N=C(N)c1cccc(CC(NS(=O)(=O)c2ccc3ccccc3c2)C(=O)N2CCN(C=O)CC2)c1` (stereo not shown) [AMD 2-Naph For], for which the Ki in assay [1] was over 1000 µM; in assay [2], 16 µM; in assay [3] (read-out: Ki, Thrombin), 0.037 µM; in [5], 83 µM; in assay [6], 440 µM; in assay [7], 19 µM. For the same compound, in [8] (read-out: Ki, Plasmin, Table 1), the Ki was found to be 6.3 µM.

Regarding `N=C(N)c1cccc(CC(NS(=O)(=O)c2ccc3ccccc3c2)C(=O)N2CCN(S(=O)(=O)c3ccccc3)CC2)c1` (stereo not shown) [AMD 2-Naph SO2 -Ph], the Ki was over 1000 µM in assay [1]; 36 µM in assay [2]; 0.041 µM in assay [3] (setting [13]); 120 µM in assay [5]; over 1000 µM in [6]; 24 µM in assay [7]. The Ki in [8] (read-out: Ki, Plasmin, Table 1) amounted to 19 µM.

Regarding `Cc1ccc(S(=O)(=O)N2CCN(C(=O)C(Cc3cccc(C(=N)N)c3)NS(=O)(=O)c3ccc4ccccc4c3)CC2)cc1` (stereo not shown) [AMD 2-Naph SO2 -Tol], the Ki in assay [1] was over 1000 µM; in assay [2], 30 µM; in assay [3] (setting [13]), 0.022 µM; in assay [5] it was over 1000 µM; in [6], over 1000 µM; in assay [7], 24 µM. In addition, the inhibition constant (Ki) in assay [8] (read-out: Ki, Plasmin, Table 1) was found to be 15 µM.

In the case of `CCS(=O)(=O)N1CCN(C(=O)C(Cc2cccc(C(=N)N)c2)NS(=O)(=O)c2ccc3ccccc3c2)CC1` (stereo not shown) [AMD 2-Naph SO2 Et], the inhibition constant Ki in assay [1] was 820 µM; in [2], 58 µM; in assay [3] (setting [13]), 0.044 µM; in assay [5] it was 212 µM; in assay [6], over 1000 µM; in [7] it was 24 µM. In addition, the Ki in assay [8] (read-out: Ki, Plasmin, Table 1) stood at 3.5 µM.

Consider `N=C(N)c1cccc(CC(NS(=O)(=O)c2ccc3ccccc3c2)C(=O)N2CCN(S(=O)(=O)c3ccc4ccccc4c3)CC2)c1` (stereo not shown) [AMD 2-Naph SO2-2-Naph], for which the Ki in assay [1] was over 1000 µM; in assay [2] it was 22 µM; in [3] (setting [13]), 0.024 µM; in [5] it was 90 µM; in assay [6], over 1000 µM; in assay [7], 25 µM. The inhibitory constant (Ki) in assay [8] (read-out: Ki, Plasmin, Table 1) is 11 µM.

`COc1cc(C)c(S(=O)(=O)NC(Cc2cccc(C(=N)N)c2)C(=O)N2CCN(S(C)(=O)=O)CC2)c(C)c1C` (stereo not shown) [AMD Mtr SO2 Me]: the inhibitory constant (Ki) in assay [1] is over 1000 µM; in assay [2], 150 µM; in assay [3] (setting [13]) it was 0.032 µM; in assay [5], 630 µM; in assay [6] it was over 1000 µM; in assay [7], 120 µM. Besides, in assay [8] (read-out: Ki, Plasmin, Table 1), the Ki is 18 µM.

Regarding `CC(=O)N1CCN(C(=O)C(Cc2cccc(C(=N)N)c2)NS(=O)(=O)c2ccc3c(c2)C(=O)c2ccccc2C3=O)CC1` (stereo not shown) [Compound 4], the Ki was over 1000 µM in [1]; 0.014 µM in assay [9]; 7 µM in [2]; 0.026 µM in assay [4]; 52 µM in [5]; over 1000 µM in assay [6]. The Ki in [7] is 4.1 µM; in assay [8], 8.6 µM. Further, in assay [10], the “Concentr. to double the Thrombin time” value was found to be 0.085 µmol/L. For the same compound, the “concentration to double the TT” value in assay [10] is on record as “less than 10^-7 mol/1”. Also, in [11], the “Concentr. to double the Prothrombin time” value worked out at 2.0 µmol/L. In addition, the “concentration to double the PT” value in assay [11] is recorded as at most 1 μmol/1. The “Concentr. to double the aPTT” value in assay [12] came out at 1.2 µmol/L. For the same compound, the “concentration to double the aPTT” value in [12] is at most 1 μmol/1.

Consider `COc1cc(C)c(S(=O)(=O)N[C@@H](Cc2cccc(C(=N)N)c2)C(=O)N2CCN(S(C)(=O)=O)CC2)c(C)c1C` [Compound 9], for which the Ki in assay [1] was 600 µM; in [9], 0.02 µM; in assay [2] it was 170 µM; in assay [4] it was 0.86 µM; in assay [5] it was over 1000 µM; in assay [6] it was over 1000 µM. The Ki in [7] was 48 µM; in assay [8] it was 8.2 µM. The “Concentr. to double the Thrombin time” value in assay [10] amounted to 0.12 µmol/L. Also, in [11], the “Concentr. to double the Prothrombin time” value came to 1.1 µmol/L. The “Concentr. to double the aPTT” value in assay [12] amounted to 0.57 µmol/L.

Turning to `Cc1c(C)c(S(=O)(=O)N[C@@H](Cc2cccc(C(=N)N)c2)C(=O)N2CCN(S(C)(=O)=O)CC2)c(C)c2c1OC(C)(C)CC2` [Compound 10, Pmc-3-amidino-(L)-phenylalanine-4-methylsulfonyl piperazide hydrochloride], the Ki was 600 µM in [1]; 0.0053 µM in assay [9]; 110 µM in [2]; over 1000 µM in [5]; over 1000 µM in [6]; 37 µM in assay [7]. Moreover, the “Concentr. to double the Thrombin time” value in assay [10] was determined as 0.10 µmol/L. The “Concentr. to double the Prothrombin time” value in [11] amounted to 0.8 µmol/L. In addition, the “Concentr. to double the aPTT” value in assay [12] is 0.44 µmol/L.

As for `CS(=O)(=O)N1CCN(C(=O)C(Cc2cccc(C(=N)N)c2)NS(=O)(=O)c2cccc3ccccc23)CC1` (stereo not shown) [Compound 11], the Ki in assay [1] was over 1000 µM; in assay [2] it was 79 µM; in assay [3] (setting [13]) it was 0.026 µM; in [3] (read-out: Thrombin inhibition Ki, Table 7), 0.026 µM; in assay [5], over 1000 µM; in [6] it was over 1000 µM. In addition, the Ki in assay [7] stood at 9.7 µM; in assay [8] (read-out: Ki, Plasmin, Table 1), 5 µM.
